{"source": "patent US20260176636A1", "about": "“APTAMER-DIRECT INHIBITOR CONJUGATES AND METHODS OF USING THE SAME” (Duke University, priority 2022, published 2026)", "origin": "cited, not measured here", "tested_on": "human thrombin", "conditions": "approximately 1 μM; cited from earlier work", "note": "[invdT] = inverted (3'-3') thymidine"}
{"substance": "Tog25t: thrombin exosite II-targeting RNA aptamer, SEQ ID NO: 12 (GGGAACAAAGCUGAAGUACUUACCC; [invdT] at 3' end, other sugars and backbone not given here; further chemistry not fully specified)", "values": [{"measurement": "effect on aPTT clotting time", "value": "modest extension in aPTT clotting time"}]}
